In US8658697B2 (priority 2004, dated 2014) one finds EC50 data, which are given here for 27 compounds.

This experiment relates to Tacaribe virus (TRVL 11573). The experiment in a line: microbe, parasite or virus in culture. In kind it is cell-based. The note with it: Mammarenavirus tacaribeense, Vero, read-out: Tacaribe EC50.
Regarding `CC(NC(=O)Nc1ccc(Br)cc1)(C(F)(F)F)C(F)(F)F` [Example 81, 1-(4-Bromophenyl)-3-(2,2,2-trifluoro-1-methyl-1-trifluoromethylethyl)-urea], the EC50 lay within 1000 to 5000 nM.

Turning to `CC(NC(=O)Nc1ccccc1)(C(F)(F)F)C(F)(F)F` [Example 75, 1-Phenyl-3-(2,2,2-trifluoro-1-methyl-1-trifluoromethylethyl)-urea], the EC50 fell in the range of 1000 to 5000 nM.

Consider `CC(NC(=O)NNS(=O)(=O)c1cccc2c1OCCO2)(C(F)(F)F)C(F)(F)F` [Example 34, N-2-(1,1,1,3,3,3-Hexafluoro-2-methylpropyl)-2-[5-(2,3-dihydrobenzo[1,4]dioxinyl)sulfonyl]hydrazine-1-carboxamide], for which the EC50 was 1000 to 5000 nM.

For `CC(NC(=O)NNS(=O)(=O)c1ccccc1OC(F)(F)F)(C(F)(F)F)C(F)(F)F` [Example 28, N-2-(1,1,1,3,3,3-Hexafluoro-2-methylpropyl)-2-[(2-trifluoromethoxyphenyl)sulfonyl] hydrazine-1-carboxamide], the EC50 lay in the range of 1000 to 5000 nM.

In the case of `CC(NC(=O)NNS(=O)(=O)c1ccc(OC(F)F)cc1)(C(F)(F)F)C(F)(F)F` [Example 13, N-2-(1,1,1,3,3,3-Hexafluoro-2-methylpropyl)-2-[(4-difluoromethoxyphenyl)sulfonyl] hydrazine-1-carboxamide], the EC50 was under 500 nM.

As to `Cc1cc(C)c(S(=O)(=O)NNC(=O)NC(C)(C(F)(F)F)C(F)(F)F)c(C)c1` [Example 5, N-2-(1,1,1,3,3,3-Hexafluoro-2-methylpropyl)-2-[(2,4,6-trimethylphenyl)sulfonyl)hydrazine-1-carboxamide], the EC50 is under 500 nM.

Consider `CC(NC(=O)N1CCCCC1)(C(F)(F)F)C(F)(F)F` [Example 54, 1-Piperidino-1-(2,2,2-trifluoro-1-methyl-1-trifluoromethylethyl)-carboxamide], for which the concentration giving a half-maximal response (EC50) was 500 to 1000 nM.

With `Cc1noc(C)c1S(=O)(=O)NNC(=O)NC(C)(C(F)(F)F)C(F)(F)F` [Example 47, N-2-(1,1,1,3,3,3-Hexafluoro-2-methylpropyl)-2-[(3,5-dimethylisoxazol-5-yl)sulfonyl]hydrazine-1-carboxamide], the EC50 was over 5000 nM.

As for `CC(NC(=O)NNS(=O)(=O)c1ccccc1)(C(F)(F)F)C(F)(F)F` [Example 30, N-2-(1,1,1,3,3,3-Hexafluoro-2-methylpropyl)-2-[phenylsulfonyl]hydrazine-1-carboxamide], the EC50 was 1000 to 5000 nM.

`CC(NC(=O)Nc1ccccc1F)(C(F)(F)F)C(F)(F)F` [Example 72, 1-(2-fluorophenyl)-3-(2,2,2-trifluoro-1-methyl-1-trifluoromethylethyl)-urea]: the EC50 lay in the range of 1000 to 5000 nM.

Turning to `CC(NC(=O)N1CCCCCC1)(C(F)(F)F)C(F)(F)F` [Example 94, Azepane-1-carboxylic acid (2,2,2-trifluoro-1-methyl-1-trifluoromethylethyl)-amide], the EC50 was over 5000 nM.

Turning to `CC(NC(=O)NNS(=O)(=O)c1cccc(C#N)c1)(C(F)(F)F)C(F)(F)F` [Example 32, N-2-(1,1,1,3,3,3-Hexafluoro-2-methylpropyl)-2-[(3-cyanophenyl)sulfonyl]hydrazine-1-carboxamide], the EC50 is 1000 to 5000 nM.

Take `COc1ccc(S(=O)(=O)NNC(=O)NC(C)(C(F)(F)F)C(F)(F)F)cc1` [Example 12, N-2-(1,1,1,3,3,3-Hexafluoro-2-methylpropyl)-2-[(4-methylphenyl)sulfonyl]hydrazine-1-carboxamide]: the EC50 is under 500 nM.

For the compound `CC(NC(=O)N1CCOCC1)(C(F)(F)F)C(F)(F)F` [Example 52, 4-Morpholino-1-(2,2,2-trifluoro-1-methyl-1-trifluoromethylethyl)-carboxamide], the concentration giving a half-maximal response (EC50) was under 500 nM.

`Cc1ccc(NC(=O)NC(C)(C(F)(F)F)C(F)(F)F)cc1` [Example 90, 1-(4-Methylphenyl)-3-(2,2,2-trifluoro-1-methyl-1-trifluoromethylethyl)-urea]: the half-maximal effective concentration (EC50) was over 5000 nM.

With `COc1ccccc1NC(=O)NC(C)(C(F)(F)F)C(F)(F)F` [Example 98, 1-(2-Methoxyphenyl)-3-(2,2,2-trifluoro-1-methyl-1-trifluoromethylethyl)-urea], the EC50 is over 5000 nM.

Turning to `CC(NC(=O)NNS(=O)(=O)c1cccc(OC(F)F)c1)(C(F)(F)F)C(F)(F)F` [Example 31, N-2-(1,1,1,3,3,3-Hexafluoro-2-methylpropyl)-2-[(3-difluoromethoxyphenyl)sulfonyl] hydrazine-1-carboxamide], the EC50 fell in the range of 1000 to 5000 nM.

On to `CC(NC(=O)NNS(=O)(=O)c1c(F)cccc1F)(C(F)(F)F)C(F)(F)F` [Example 40, N-2-(1,1,1,3,3,3-Hexafluoro-2-methylpropyl)-2-[(2,6-difluorophenyl)sulfonyl]hydrazine-1-carboxamide], for which the 50% effective concentration (EC50) lay in the range of 1000 to 5000 nM.

On to `CN1CCOc2cc(S(=O)(=O)NNC(=O)NC(C)(C(F)(F)F)C(F)(F)F)ccc21` [Example 3, N-2-(1,1,1,3,3,3-Hexafluoro-2-methylpropyl)-2-[7-(4-methyl-3,4-dihydro-2H-benzo[1,4]oxazinyl)sulfonyl] hydrazine-1-carboxamide], for which the EC50 is under 500 nM.

As for `COc1cccc(OC)c1NC(=O)NC(C)(C(F)(F)F)C(F)(F)F` [Example 73, l-(2,6-Dimethoxyphenyl)-3-(2,2,2-trifluoro-1-methyl-1-trifluoromethylethyl)-urea], the EC50 was 1000 to 5000 nM.

Regarding `CC(NC(=O)N1CCCC1)(C(F)(F)F)C(F)(F)F` [Example 91, 1-Pyrrolidinyl-1-(2,2,2-trifluoro-1-methyl-1-trifluoromethylethyl)-carboxamide], the EC50 was over 5000 nM.

In the case of `CC(NC(=O)Nc1cccc(C(F)(F)F)c1)(C(F)(F)F)C(F)(F)F` [Example 65, 1-(3-Trifluoromethylphenyl)-3-(2,2,2-trifluoro-1-methyl-1-trifluoromethylethyl)-urea], the EC50 lay within 1000 to 5000 nM.

Take `CC(NC(=O)Nc1c(Br)cccc1Br)(C(F)(F)F)C(F)(F)F` [Example 88, 1-(2,6-Dibromophenyl)-3-(2,2,2-trifluoro-1-methyl-1-trifluoromethylethyl)-urea]: the EC50 was over 5000 nM.

As for `Cc1nc(C)c(S(=O)(=O)NNC(=O)NC(C)(C(F)(F)F)C(F)(F)F)s1` [Example 38, N-2-(1,1,1,3,3,3-Hexafluoro-2-methylpropyl)-2-[(2,4-dimethylthiazol-5-yl)sulfonyl]hydrazine-1-carboxamide], the EC50 was 1000 to 5000 nM.

As to `CC(NC(=O)Nc1cccc2c1OC(F)(F)C(F)(F)O2)(C(F)(F)F)C(F)(F)F` [Example 67, 1-(2,2,3,3-Tetrafluoro-2,3-dihydrobenzo[1,4]dioxin-5-yl)-3-(2,2,2-trifluoro-1-methyl-1-trifluoromethylethyl)-urea], the EC50 fell in the range of 1000 to 5000 nM.

On to `CC(NC(=O)NNS(=O)(=O)c1ccc(F)cc1)(C(F)(F)F)C(F)(F)F` [Example 16, N-2-(1,1,1,3,3,3-Hexafluoro-2-methylpropyl)-2-[(4-fluoro-phenyl)sulfonyl]hydrazine-1-carboxamide], for which the EC50 was 500 to 1000 nM.

With `CC(NC(=O)NNS(C)(=O)=O)(C(F)(F)F)C(F)(F)F` [Example 50, N-2-(1,1,1,3,3,3-Hexafluoro-2-methylpropyl)-2-[methylsulfonyl]hydrazine-1-carboxamide], the concentration giving a half-maximal response (EC50) is over 5000 nM.
